We go through 6 compounds from patent publication US4619939A, “Process for reducing intraocular pressure” (priority 1985, dated 1986).

Molecules are shown by their SMILES. Read-outs that look alike come from different tables or passages of the source.

Series [1] in a line: pKa by titration with NaOH. Type of series: physicochemical. An excerpt:
The pKa may be measured by titrating the compound with NaOH and finding the point at which half of the compound is neutralized. The pH at this point is the pKa.

The nature of series [2]: first order rate constant for penetration through living rabbit cornea. Type of series: in vivo. As to the method:
Still another critical property of the inhibitor compounds employed in this invention is that the compound must have a first order rate constant for penetration of the compound through a living rabbit cornea of at least 0.005 hr^-1. This property is important in that it sets a standard for a speed in which the inhibitor will pass through the cornea to the interior of the eye and be available to inhibit the activity of carbonic anhydrase in that location. This is measured by placing a solution of the compound (about 0.5 ml) on the cornea of the living, lightly anesthetized rabbit. The lids are held by light hemostats in such a way as to create a well to hold the solution so that a steady state concentration is achieved. At timed intervals, samples are withdrawn from the anterior chamber of the rabbit and the fluid analyzed for the concentration of drug. The analyses are done by the method of Maren, supra. The data are treated to yield the first order rate constants which are cited herein.

A further series in a line: stability in solution. The class given is physicochemical. The text has this: The final property which is necessary for a compound used in this invention is that it be stable against decomposition in solution and in contact with the cornea. This property may be tested by dissolving the compound in aqueous solution and in solution containing corneal tissue to determine whether the compound has remained stable or has decomposed into other materials.

A short description of series [3]: topical administration of prior art inhibitors, intraocular pressure. The class given is in vivo.
A further series is described as follows: solubility in water. The settings on record: for ability to form an aqueous solution of sufficient concentration for topical use: near neutral pH.
The conditions of series [4]: Foss 1955; cited from earlier work.
The target in a further series is carbonic anhydrase (Homo sapiens, UniProt P00918). The series can be described thus: dissociation constant against carbonic anhydrase. The class given is biochemical. An excerpt: The dissociation constant is the concentration of the compound that will inhibit one-half of the carbonic anhydrase in a test system wherein the conditions are so arranged that the compound is present in excess of the carbonic anydrase.

Series [5] in a line: ether partition coefficient at pH 7.2. Type of series: physicochemical. As to the method:
This property in conjunction with the chloroform coefficient is a measure of the lipid solubility of this compound. This is a critical feature since the compound must be readily absorbed by the lipid materials in the eye and be available for intimate contact with carbonic anhydrase so as to control its activity. This property is measured by preparing an aqueous solution of the compound at pH 7.2 and shaking the solution with an equal volume of ether until equilibrium is achieved in the system. An ether layer and an aqueous layer are formed, separated, and each analyzed for its content of the compound. The coefficient is the ratio of the amount of the compound in the ether layer to the amount of the compound in the aqueous layer. See, e.g., Maren, J. Pharm. […] Therap. Vol. 130, p.

A short description of series [6]: chloroform partition coefficient at pH 7.2. Type of series: physicochemical. As to the method: Another critical property necessary in the inhibitors employed in this invention is the chloroform partition coefficient which must be at least 0.01. This property also relates to the lipid solubility of the compound employed and it is measured as described above with respect to ether. The procedure is the same as that described above except that chloroform is employed in place of ether.

A short description of a further series: injury to the cornea. The settings on record: 2-5% solution. The class given is in vivo. The text has this:
Still another critical property of the compounds employed in this invention is that they be pharmaceutically acceptable and not be injurious to the cornea being treated.

A word on the pKa: it is the pH at which an ionisable group is half protonated. Regarding `NS(=O)(=O)c1nnc(-c2ccccc2Cl)s1` [2-orthochlorophenylthiadiazole-5-sulfonamide], in series [1] (read-out: pKa), the pKa stood at 7.3. Further, in series [2], the “in vivo rabbit cornea penetration rate constant” value is 0.3 h⁻¹. The stability in solution entry in the series “stability in solution” was “stable in solution”.
For the compound `CC(=O)/N=c1/sc(S(N)(=O)=O)nn1C` [Methazolamide, 2-acetylimino-3-methyl-Δ^2-1,3,4-thiadiazoline-5-sulfonamide], the “reduction of intraocular pressure by topical application” value in series [3] is reported as “not reduced except to a very slight extent in one of the series of tests”. For the same compound, the pKa in series [1] was 7.4. Further, in the series “solubility in water”, the “ability to form an aqueous solution of sufficient concentration for topical use” value is given as “cannot be made into a neutral solution with a sufficiently high concentration”.
Turning to `CC(=O)Nc1nnc(S(N)(=O)=O)s1` [acetazolamide, 2-acetylamino-1,3,4-thiadiazole-5-sulfonamide], the “ability to form an aqueous solution of sufficient concentration for topical use” value in “solubility in water” is given as “cannot be made into a water solution below pH 8 at concentrations sufficiently high”. For the same compound, in series [4], the “lowering intraocular pressure by topical administration” value is “completely unsuitable”.
The solubility is the dissolved amount per volume that the medium holds. A higher solubility goes with a readily soluble substance. Regarding `CCOc1ccc2nc(S(N)(=O)=O)sc2c1` [ethoxzolamide, 6-ethoxy-benzothiazole-2-sulfonamide], the “reduction of intraocular pressure by topical application” value in series [3] is “ineffective”. This compound returned a pKa in series [1] of 8.1. In addition, in the series “solubility in water” (water), the solubility was ≤ 40 µg/mL.
Usually Ki stands for the dissociation constant of the complex between target and ligand, obtained from inhibition or displacement. A lower Ki goes with higher affinity. `Cn1nc(S(N)(=O)=O)sc1=NC(=O)C(Cl)(Cl)Cl` [trichloromethazolamide, 2-trichloroacetylimino-3-methyl-Δ^2-1,3,4-thiadiazoline-5-sulfonamide]: the pKa in series [1] (read-out: pKa) came out at 7. This compound came in with a Ki on carbonic anhydrase of 20 nM. Also, the ether partition coefficient in series [5] is given as 56. Moreover, in [2], the “in vivo rabbit cornea penetration rate constant” value worked out at 0.063 h⁻¹. The compound further came in with a chloroform partition coefficient in [6] of 4. In “stability in solution”, the stability in solution entry is on record as “stable in solution for at least six hours”. In addition, in “injury to the cornea”, the “injury or clouding of the cornea” value is listed as “does not injure or cloud the cornea”.
Consider `Cn1nc(S(N)(=O)=O)sc1=NC(=O)C(F)(F)F` [trifluoromethazolamide, 2-trifluoroacetylimino-3-methyl-Δ^2-1,3,4-thiadiazoline-5-sulfonamide], for which, in series [1], the pKa was determined as 6.6. The ether partition coefficient in series [5] is reported as 6.0. The “in vivo rabbit cornea penetration rate constant” value in series [2] was 0.014 h⁻¹. The chloroform partition coefficient in series [6] is 0.3. For the same compound, the stability in solution result in the series “stability in solution” is reported as “stable in solution for two hours”. The “injury or clouding of the cornea” value in “injury to the cornea” is “does not injure or cloud the cornea”.
